According to PMC3024946, “Hydroxyproline-containing collagen analogs trigger the release and activation of collagen-sequestered proMMP-2 by competition with prodomain-derived peptide P33-42” (Fibrogenesis & Tissue Repair, 2011):
“Also recorded” adds a separate entry of the source.

Target: T1, proMMP-2 / CI (Homo sapiens, UniProt P08253)
T1 construct: prodomain-containing proMMP-2 or proMMP-9; purchased Invitek
T1 sequence (P08253 30-660 limits assumed): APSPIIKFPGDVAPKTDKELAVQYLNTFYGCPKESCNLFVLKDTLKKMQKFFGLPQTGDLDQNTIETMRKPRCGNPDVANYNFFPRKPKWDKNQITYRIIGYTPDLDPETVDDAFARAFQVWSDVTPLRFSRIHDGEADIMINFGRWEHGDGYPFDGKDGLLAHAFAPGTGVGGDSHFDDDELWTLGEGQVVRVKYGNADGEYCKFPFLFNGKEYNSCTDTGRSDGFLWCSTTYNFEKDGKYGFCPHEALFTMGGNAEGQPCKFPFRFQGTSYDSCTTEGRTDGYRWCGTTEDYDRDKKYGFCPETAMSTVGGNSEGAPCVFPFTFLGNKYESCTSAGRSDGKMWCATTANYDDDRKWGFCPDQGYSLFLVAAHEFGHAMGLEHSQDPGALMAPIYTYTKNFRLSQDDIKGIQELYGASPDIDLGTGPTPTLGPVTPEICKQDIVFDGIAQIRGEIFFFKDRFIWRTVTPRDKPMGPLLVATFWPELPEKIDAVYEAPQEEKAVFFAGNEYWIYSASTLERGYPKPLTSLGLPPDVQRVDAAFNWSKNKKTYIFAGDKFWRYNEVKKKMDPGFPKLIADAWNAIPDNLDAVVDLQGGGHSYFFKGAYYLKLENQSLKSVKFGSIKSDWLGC
Experiment: SPR, competition of proMMP-2 binding to CI, MMP activity buffer with Ro 28-2653
Conditions: for competition with proMMP-2 binding to CI: SPR, MMP activity buffer with Ro 28-2653; for Kd for binding to CI in the presence of 10-fold molar excess of competitor: proMMP-2 100 nM, MMP activity buffer, 1 μM Ro 28-2653, 25°C, mean ± SD, at least three experiments
Description: Sensor chip preparations and SPR measurements were performed using a BiacoreX device and the Bia-evaluation software (version 3.2; Biacore, Uppsala, Sweden). The pepsin-resistant triple-helical part of human fibrillar CI (100 μg/ml) in 10 mM acetate coupling buffer, pH 4.8, was immobilized to a dextran matrix-sensor chip at a flow rate of 5 μl/min, resulting in 5,500 resonance units from CI covalently linked via its primary amino groups. The control flow cell was prepared using the coupling buffer without CI. Surfaces were activated and blocked as described previously. Immediately after thawing, pro- and actMMP-2 and pro- and actMMP-9 were diluted to 100 to 250 nM in MMP activity buffer or in PBS and 0.05% (vol/vol) Tween 20. For SPR measurements, flow rates were 10 μl/min at 25°C, and equilibrium was typically reached after 30 to 60 s. The effects of (GPO)10, GAP, (POG)5, (GPP)10 and P33-42 on MMP-2 and MMP-9 binding to CI and their enzymatic activity were determined by adding the binding competitors to the (pro- and act)MMP-2 and MMP-9 solution in 10- to 150-fold molar excesses. Effects independent of MMP-2 and MMP-9 activity were monitored in the presence of Ro 28-2653 (1 μM) during SPR analysis. The gelatinase inhibitor Ro 28-2653 was a generous gift from H.-W. Krell (Roche, Grenzach-Wyhlen, Germany). Sensor surfaces were regenerated with 10 mM glycine, pH 2.3, for 1 min between runs, and sensor chips were used up to 25 times. Kinetic parameters were analyzed using the 1:1 binding model with drifting baseline and subtraction of the control flow cell binding from sensorgrams obtained with immobilized CI. Binding constants (Kd) were calculated from the association (ka) and dissociation rates (kd) obtained from individual binding curves at different concentrations. Individual drifts of the resonance signal were fitted locally, and χ^2 values of 0.2% to 1.0% of the maximum resonance value were considered good fits.

Row | Kd for binding to CI in the presence of 10-fold molar excess of competitor [nM] | reduction of affinity / increase in Kd of binding to CI (proMMP-2, 10-fold molar excess of competitor) | Substance | competition with proMMP-2 binding to CI
1 | 42.1 ± 39.1 | about a sixfold increase | H-Gly-Cys-Pro-(Gly-Pro-Pro)10-Gly-Cys-Pro-Gly-NH2 [(GPP)10, Triple-helical Gly-Pro-Pro (GPP)10, devoid of Hyp] | much less efficient in competing with proMMP-2 binding to CI than the nonhelical (POG)5
2 | 155.5 ± 50.2 | – | H-Gly-Cys-Hyp-(Gly-Pro-Hyp)10-Gly-Cys-Hyp-Gly-NH2 [(GPO)10, triple-helical Hyp-containing collagen analog] | comparable to that of (POG)5; also recorded: effectively compete proMMP-2 binding to CI
